Results reported in patent US3959356A, “Acetylene derivatives of amino acids” (Richardson-Merrell Inc., priority 1975, dated 1976).

Tests used:
[1] = system: brain level of γ-aminobutyric acid; settings: literature compound, cited from earlier work
[2] = system: γ-aminobutyric acid transaminase; settings: literature compounds; cited from earlier work
[3] = loss of body weight in rats on daily dosing; format: in vivo; settings: rats weighing 190 g; oral 25 mg/kg for four days (not a sedative dose); saline group 250 g
Method: For instance, rats weighing 190 g, when given for four days, oral doses of 25 mg/kg 4-amino-5-yne-hexanoic acid (which is not a sedative dose) weigh only 170 gms as compared to 250 g for animals of the same group which were given saline for the same period.

audiogenic seizures = experiment: protection against audiogenic seizures in DBA mice (method of Simler et al.); format: in vivo, mice of the DBA strain; settings: 50-200 mg/kg
From the text: This ability is further shown by the protective effect of this treatment on audiogenic seizures in mice of the DBA strain measured by the general method described by Simler et al., Biochem. Pharmacol. 22, 1701 (1973), which is currently used to evidence antiepileptic activity.

reserpine ptosis = reserpine ptosis test of Rubin et al. (anti-depressant activity); format: in vivo; settings: 50 mg/kg i.p. in mice one hour after 2 mg/kg i.v. reserpine; 3 hours after drug administration; control reserpinized animals 6.5
Method: The ability of the compounds of this invention at doses ranging from 50 to 200 mg/kg, to alleviate reserpine ptosis has been shown by the classical test of B. Rubin et al., J. Pharmacol. 120, 125 (1957), which is currently used to determine anti-depressant activity. For instance, in intraperitoneal injection 50 mg/kg of 4-amino-5-yne-hexanoic acid in mice, one hour after an intravenous injection of 2 mg/kg reserpine dissolved in 2% ascorbic acid/water results in a palpebral aperture of 5.5, 3 hours after drug administration as compared to 6.5 for control reserpinized animals.

[4] = system: spontaneous motor activity; experiment: spontaneous motor activity in rodents (sedative properties), procedure of Dews; format: in vivo; settings: 100-200 mg/kg, mice or rats
Method: The sedative properties of the compounds of this invention were determined by measuring spontaneous motor activity in rodents by the procedure described by P. Dews, Brit. J. Pharmacol. 8, 46 (1953).

| Structure (SMILES) | effect on brain levels of γ-aminobutyric acid [1] | duration of the effect on brain γ-aminobutyric acid ([1]; reversible effect) | type of inhibition of γ-aminobutyric acid transaminase [2] | body weight after treatment [3] | duration of protection against audiogenic seizures (audiogenic seizures) | protection against audiogenic seizures (audiogenic seizures; one hour after treatment) | palpebral aperture (reserpine ptosis) | time after administration at which decreased motor activity is still observable ([4]; i.v., i.p. or oral) | time at which decreased motor activity appears after administration ([4]; i.v., i.p. or oral) | effect on spontaneous motor activity ([4]; intravenous, intraperitoneal or oral route) |
| --- | --- | --- | --- | --- | --- | --- | --- | --- | --- | --- |
| CCCC(CCC)C(=O)O [n-dipropylacetate] | elevate brain levels of γ-aminobutyric acid | about 2 hours | competitively inhibiting |  |  |  |  |  |  |  |
| NCC#CC(=O)O [4-aminotetrolic acid] |  |  | competitive reversible inhibitor |  |  |  |  |  |  |  |
| C#CC(N)CCC(=O)O (racemic) [4-amino-5-yne-hexanoic acid, 4-Amino-5-yne-hexanoic acid] |  |  |  | 170 gms | over 16 hours | complete protection | 5.5 | ≥ 48 h | 1 h | substantially decreased motor activity |
